Results from PMC9131871, “Impact of Micropolymorphism Outside the Peptide Binding Groove in the Clinically Relevant Allele HLA-C*14 on T Cell Responses in HIV-1 Infection” (Journal of Virology, 2022).
“Also recorded” adds a separate entry of the source.

Columns and labels:
[1] = system: PBMCs from HIV-1-infected HLA-C*14:02+ or HLA-C*14:03+ individuals; assay: ex vivo IFN-γ ELISPOT assay; assay type: cell-based, human; conditions: 1 μM peptide; for HLA-C*14 subtype of the individuals in whom responses were detected: initial screening, 10 HLA-C*14:02+ and 10 HLA-C*14:03+ individuals
From the text: To clarify whether these HLA-C*14:02- and C*14:03-binding HIV-1 peptides were T cell epitopes, we investigated T cell responses to these peptides in HIV-1-infected individuals. We assessed T cell targeting of 14 putative HIV-1 epitope sites by testing responses to the 14 NL4-3 sequence-based peptides and 9 variant peptides in 10 HLA-C*14:02^+ and 10 HLA-C*14:03^+ treatment-naive individuals living with HIV-1 subtype B using ex vivo gamma interferon (IFN-γ) ELISPOT assays. To identify HLA-C*14-restricted immunodominant epitopes, we investigated whether these peptides were recognized by virus-specific T cells in 20 individuals enabling detection of epitopes typically targeted in >5% of HLA-C*14^+ individuals. […] T cell responses to variant versions of the Gag LY9, Pol KM9, and Nef IF8 peptides were detected in a number of individuals similar to the number with responses to their NL4-3 sequence-based counterparts (Fig. 3A).
FIG 3 T cell responses to HLA-C*14:02- and/or HLA-C*14:03-binding HIV-1 peptides. (A) T cell responses to HLA-C*14:02/03-binding peptides in 20 chronically HIV-1-infected Japanese individuals with HLA-C*14:02 or HLA-C*14:03. T cell targeting of 14 putative epitopes was analyzed by testing responses to 14 NL4-3 sequence-based peptides and 9 peptides that were sequence variants thereof in ex vivo IFN-γ ELISPOT assays (peptides tested at a concentration of 1 μM). A positive response was defined as >100 spots/10^6 PBMCs (indicated by the horizontal dotted line). (B) Correlation between peptide binding to HLA-C*14:02 or HLA-C*14:03 and the frequency of responders to these peptides in HLA-C*14:02^+ (blue) and HLA-C*14:03^+ (red) individuals for NL4-3 sequence-based versions of the peptides only (left) or both NL4-3 sequence-based and variant peptides (right). Statistical analyses were performed using Pearson's correlation test.
PBMCs were separated from whole blood and stored at −80°C. ELISPOT assays were performed as previously described ([13]). Briefly, 1 × 10^5 PBMCs from HIV-1-infected individuals and a 1 μM concentration of each HLA-C*14:02- and -C*14:03-eluted HIV-1 peptide were added to 96-well polyvinylidene plates (Millipore) that had been coated overnight with 5 μg/mL anti-IFN-γ MAb 1-D1K (Mabtech). The plates were incubated for 16 h at 37°C in 5% CO2, and then the cells were stained as previously described in detail ([13]). The spots were counted with an Eliphoto-Counter instrument (Minerva Teck). The number of spots was calculated per 10^6 PBMCs; 100 spots/10^6 PBMCs was defined as a positive response, as described previously ([13]).

HLA-C*14:03 = HLA-C*14:03 (Homo sapiens, UniProt P10321, A176E/A330V/A35S/A97T/C350S/D114A/D33S/L171W/L180R/L218V/M285V/M309V/M331V/P208H/Q277E/Q291P/R121W/R243W/R45H/S123F/S297R/S48A/T329A/T363A/V319A); assay: LC-MS/MS identification of HLA-bound HIV-1 peptides from NL4-3-infected .221-C1403 cells; assay type: binding; set-up: key: ●: Closed circles indicate the peptide which was identified in HLA-C*1402 or/and -C*1403 expressing cells; conditions: HIV-1 NL4-3-infected .221-C1403 cells, W6/32 immunoprecipitation, two independent replicate experiments
Experimental: (§1) 721.221 cells expressing CD4 and HLA-C*14:02 (.221-C1402) or HLA-C*14:03 (.221-C1403) were infected with the laboratory-adapted NL4-3 HIV-1 strain. HLA-peptide complexes were isolated from cell lysates by immunoprecipitation with the anti-HLA class I antibody W6/32; then, peptides were eluted, fractionated by high-performance liquid chromatography (HPLC), and finally analyzed by LC-MS/MS. Two independent replicate experiments were performed, in which a total of 7,970 and 8,447 unique 8- to 13-mer peptide sequences were identified from .221-C1402 and .221-C1403 cells, respectively (Fig. 1A). Of these peptides, 6,163 were identified in both the C*14:02- and C*14:03-bound peptide data sets, while other peptides were detected in the acid-eluted fraction from only a single allele. […] These motifs are consistent with the HLA-C*1402/03 peptide motifs previously estimated using reported epitopes ([29]).
(§2) .221-C1402 and .221-C1403 cells were infected with HIV-1 NL4-3 in a low volume of RPMI 1640 medium (Thermo Fisher) containing 10% fetal bovine serum (FBS), 2 mM L-glutamine, 100 U/mL penicillin, 100 μg/mL streptomycin, and 10 mM HEPES (R10). Fifty microliters of NL4-3 stock virus (Reverse transcriptase activity (RT) value = 4 × 10^2 ng/mL) was added to 8 × 10^6 .221-C1402 cells or .221-C1403, and the cells were then incubated for 1.5 h at 37°C, after which 20 mL of R10 was added and the cells were cultured overnight. At day 1 postinfection, a further 20 mL R10 was added, and cells were split (1:2) on day 2. On day 3 postinfection, the proportion of cells infected with HIV-1 was determined by intracellular p24 staining, as previously described ([46]). Infected flasks were then harvested for immunoprecipitation of HLA-peptide complexes.
(§3) .221-C1402 cells or .221-C1403 cells infected with NL4-3 (1.5 × 10^8 to 2 × 10^8 cells) were harvested, washed in phosphate-buffered saline (PBS), and lysed in 5 mL of lysis buffer (1% IGEPAL 630, 300 mM NaCl, 100 mM Tris [pH 8.0], plus protease inhibitors) at 4°C for 45 min. Two centrifugation steps (2,000 × g for 10 min followed by 20,000 × g for 30 min at 4°C) were next employed to clear the lysates of cell debris prior to overnight capture of HLA-peptide complexes on W6/32-coated protein A‐Sepharose beads. W6/32-bound HLA-peptide complexes were sequentially washed with 10 to 20 mL of wash buffer 1 (0.005% IGEPAL, 50 mM Tris [pH 8.0], 150 mM NaCl, 5 mM EDTA), wash buffer 2 (50 mM Tris [pH 8.0], 150 mM NaCl), wash buffer 3 (50 mM Tris [pH 8.0], 400 mM NaCl), and finally wash buffer 4 (50 mM Tris [pH 8.0]) under gravity flow in Econo-Column glass chromatography columns (Bio-Rad). Peptide-HLA complexes were eluted from the beads with 5 mL of 10% acetic acid and, after drying under vacuum, were loaded onto a 4.6- by 50-mm ProSwift RP-1S column (Thermo Fisher Scientific) and eluted from an Ultimate 3000 HPLC system (Thermo Scientific) using a 500-μL/min flow rate over 10 min from 2% to 34% buffer B (0.1% trifluoroacetic acid [TFA] in acetonitrile) in buffer A (0.1% TFA in water). Alternate fractions were pooled to give two final peptide fractions that were dried for LC-MS/MS analysis.
(§4) Each HPLC-eluted sample was resuspended in 20 μL loading buffer, and 9 μL of it was injected onto a 3-μm-particle-size 0.075-mm by 150-mm Acclaim PepMap RSLC C18 column and further loaded onto a 2-μm-particle-size, 75-μm by 50-cm Acclaim PepMap RSLC C18 column using an Ultimate 3000 nUPLC system (Thermo Scientific). A linear gradient of 3 to 25% buffer B (0.1% formic acid, 5% dimethyl sulfoxide [DMSO] in acetonitrile) in buffer A (0.1% formic acid, 5% DMSO in water) was applied over 1 h to elute peptides from the column (flow rate of […]). Peptides were introduced, using an Easy-Spray source at 2,000 V at 40°C, into a Fusion Lumos mass spectrometer (Thermo Scientific). The ion transfer tube temperature was set to 305°C. […]

HLA-C*14:02 = HLA-C*14:02 (Homo sapiens, UniProt P10321, A176E/A330V/A35S/A97T/C350S/D114A/D33S/L171W/L180R/L218V/M285V/M309V/M331V/P208H/Q277E/Q291P/R121W/R243W/S123F/S297R/S48A/T329A/T363A/V319A); assay: LC-MS/MS identification of HLA-bound HIV-1 peptides from NL4-3-infected .221-C1402 cells; assay type: binding; set-up: key: ●: Closed circles indicate the peptide which was identified in HLA-C*1402 or/and -C*1403 expressing cells; conditions: HIV-1 NL4-3-infected .221-C1402 cells, W6/32 immunoprecipitation, two independent replicate experiments
Experimental: as §1, §2, §3, §4

[2] = 10 HLA-C*14:02+ and 10 HLA-C*14:03+ treatment-naive individuals, positive >100 spots/10^6 PBMCs

## AFHHMAREK [Nef AL9-5M9K, variant of Nef AL9, …, present in Japanese cohort viruses]
[1]; [2]
  T cell responses to peptide detected: not detected in any of the 20 individuals

## AFPQGKAREF [Pol AF10, HIV-1 NL4-3 Pol 7–16 peptide […], eluted only, not synthesized]
HLA-C*14:03
  C1403: peptide identified by LC-MS/MS in HLA-I eluate: ●
HLA-C*14:02
  C1402: peptide identified by LC-MS/MS in HLA-I eluate: ●

## AFVTIGKIGNM [Env AM11, HIV-1 NL4-3 Env 316–326 peptide […], eluted only, not synthesized]
HLA-C*14:03
  C1403: peptide identified by LC-MS/MS in HLA-I eluate: ●

## FHHVAREL [Nef FL8, HIV-1 NL4-3 Nef 191–198 peptide FHHVAREL]
HLA-C*14:03
  C1403: peptide identified by LC-MS/MS in HLA-I eluate: ●
HLA-C*14:02
  C1402: peptide identified by LC-MS/MS in HLA-I eluate: ●

## FYVDGAANRET [Pol FT11, HIV-1 NL4-3 Pol 595–605 peptide […]]
HLA-C*14:03
  C1403: peptide identified by LC-MS/MS in HLA-I eluate: ●

## IYHTQGYFP [Nef IP9, HIV-1 NL4-3 Nef 114–122 peptide …]
HLA-C*14:03
  C1403: peptide identified by LC-MS/MS in HLA-I eluate: ●
HLA-C*14:02
  C1402: peptide identified by LC-MS/MS in HLA-I eluate: ●

## KYHNNWRAM [Pol KM9-4N, variant of Pol KM9, …, present in Japanese cohort viruses]
[1]; [2]
  T cell responses to peptide detected: detected in one or more individuals
[1]
  HLA-C*14 subtype of the individuals in whom responses were detected: detected in only HLA-C*14:02^+ or HLA-C*14:03^+ individuals

## LFNTVAVL [Gag LL8-2F5V, variant of Gag LL8, LFNTVAVL, present in Japanese cohort viruses]
[1]; [2]
  T cell responses to peptide detected: detected in one or more individuals; also recorded: weak response
  number of individuals with T cell response, of 20 tested: one
[1]
  HLA-C*14 subtype of the individuals in whom responses were detected: detected in only HLA-C*14:02^+ or HLA-C*14:03^+ individuals

## LFNTVAVLY [Gag LY9-2F5V, variant of Gag LY9, …, present in Japanese cohort viruses]
[1]; [2]
  T cell responses to peptide detected: detected in one or more individuals

## LYNTIAVL [Gag LL8, HIV-1 NL4-3 Gag 78–85 peptide LYNTIAVL eluted from HLA-C*14-expressing cells]
[1]; [2]
  T cell responses to peptide detected: No T cell recognition; also recorded: no strong T cell responses
HLA-C*14:03
  C1403: peptide identified by LC-MS/MS in HLA-I eluate: ●
HLA-C*14:02
  C1402: peptide identified by LC-MS/MS in HLA-I eluate: ●

## PQGKAREF [Pol PF8, HIV-1 NL4-3 Pol 9–16 peptide PQGKAREF, eluted only, not synthesized]
HLA-C*14:03
  C1403: peptide identified by LC-MS/MS in HLA-I eluate: ●

## SFNISTSI [Env SI8, HIV-1 NL4-3 Env 158–165 peptide SFNISTSI, eluted only, not synthesized]
HLA-C*14:03
  C1403: peptide identified by LC-MS/MS in HLA-I eluate: ●

## VTIGKIGNM [Env VM9, HIV-1 NL4-3 Env 318–326 peptide …, eluted only, not synthesized]
HLA-C*14:02
  C1402: peptide identified by LC-MS/MS in HLA-I eluate: ●

## VWGRDNNSL [Pol VWL9, HIV-1 NL4-3 Pol 33–41 peptide …, eluted only, not synthesized]
HLA-C*14:03
  C1403: peptide identified by LC-MS/MS in HLA-I eluate: ●
HLA-C*14:02
  C1402: peptide identified by LC-MS/MS in HLA-I eluate: ●

## VYHTQGYF [Nef IF8-1V, variant of Nef IF8, VYHTQGYF, present in Japanese cohort viruses]
[1]; [2]
  T cell responses to peptide detected: detected in one or more individuals

## VYLAWVPAH [Pol VH9, HIV-1 NL4-3 Pol 686–694 peptide …]
HLA-C*14:03
  C1403: peptide identified by LC-MS/MS in HLA-I eluate: ●

## VYYDPSKDLIA [Pol VA11, HIV-1 NL4-3 Pol 472–482 peptide […]]
HLA-C*14:03
  C1403: peptide identified by LC-MS/MS in HLA-I eluate: ●

## YTSLIHSLI [Env YI9, HIV-1 NL4-3 Env 638–646 peptide …, eluted only, not synthesized]
HLA-C*14:02
  C1402: peptide identified by LC-MS/MS in HLA-I eluate: ●
